≈ marks a conversion by molar mass, not a printed value.

Experiment [1] has as its system Escherichia coli. Kind of experiment: Antimicrobial activity against fluoroquinolone-susceptible Escherichia coli PS5 harboring GyrA S83L mutant gene by Etest. In kind it is functional.
Experiment [2] deals with Escherichia coli. Description: Antimicrobial activity against fluoroquinolone-resistant Escherichia coli NorE5 harboring GyrA S83L mutant, ParC S80R mutant, truncated SoxR and constitutively active SoxS by Etest. Type of experiment: functional.

Take `CCn1cc(C(=O)O)c(=O)c2ccc(C)nc21` [NALIDIXIC ACID]: the minimum inhibitory concentration (MIC) against Escherichia coli [1] worked out at 1020 µg/mL (≈ 4410 µM); with Escherichia coli [2], 2050 µg/mL (≈ 8820 µM).
`CC1(C)S[C@@H]2[C@H](NC(=O)[C@H](N)c3ccc(O)cc3)C(=O)N2[C@H]1C(=O)O` [AMOXICILLIN]: the MIC is 48 µg/mL (≈ 131 µM) against Escherichia coli [1] and greater than 256 µg/mL with Escherichia coli [2].
For `CC[C@H]1OC(=O)[C@H](C)[C@@H](O[C@H]2C[C@@](C)(OC)[C@@H](O)[C@H](C)O2)[C@H](C)[C@@H](O[C@@H]2O[C@H](C)C[C@H](N(C)C)[C@H]2O)[C@](C)(O)C[C@@H](C)C(=O)[C@H](C)[C@@H](O)[C@]1(C)O` [ERYTHROMYCIN], in that order: 64 µg/mL (≈ 87.2 µM) and greater than 256 µg/mL.
For `COc1cc(Cc2cnc(N)nc2N)cc(OC)c1OC` [TRIMETHOPRIM], in that order: 0.5 µg/mL (≈ 1.72 µM) and 8 µg/mL (≈ 27.6 µM).
With `O=C(N[C@H](CO)[C@H](O)c1ccc([N+](=O)[O-])cc1)C(Cl)Cl` [CHLORAMPHENICOL], the minimum inhibitory concentration (MIC) against Escherichia coli [1] is 8 µg/mL (≈ 24.8 µM); against Escherichia coli [2] it was 64 µg/mL (≈ 198 µM).
For `CCn1cc(C(=O)O)c(=O)c2cc(F)c(N3CCNCC3)cc21` [NORFLOXACIN], in that order: 0.5 µg/mL (≈ 1.57 µM) and 32 µg/mL (≈ 100 µM).
The matching figures for `NCC[C@H](O)C(=O)N[C@@H]1C[C@H](N)[C@@H](O[C@H]2O[C@H](CN)[C@@H](O)[C@H](O)[C@H]2O)[C@H](O)[C@H]1O[C@H]1O[C@H](CO)[C@@H](O)[C@H](N)[C@H]1O` [AMIKACIN]: 12 µg/mL (≈ 20.5 µM) and 12 µg/mL (≈ 20.5 µM).
Take `CN(C)[C@@H]1C(O)=C(C(N)=O)C(=O)[C@@]2(O)C(O)=C3C(=O)c4c(O)cccc4[C@@](C)(O)[C@H]3C[C@@H]12` [TETRACYCLINE]: the minimal inhibitory concentration (MIC) against Escherichia coli [1] came to 2 µg/mL (≈ 4.5 µM); against Escherichia coli [2], 8 µg/mL (≈ 18 µM).

These data come from ChEMBL document CHEMBL1255385, “Constitutive SoxS expression in a fluoroquinolone-resistant strain with a truncated SoxR protein and identification of a new member of the marA-soxS-rob regulon, mdtG” (2010).
